Several values for one entry are separate records, joined by “and”; a condition that tells them apart may be missing. Identical values can stand only once.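 Protocol summary: plate cells (96-well), add compound at 5 concentrations, incubate 48 h, interpolate endpoints linearly. GI50 marks 50% less growth. TGI is the concentration that stops growth completely.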
Key:
Experiment in all cases: NCI tumour cell line growth inhibition, 48 h
NCI-H522 lung = system: NCI-H522 lung
UO-31 renal = system: UO-31 renal
OVCAR-4 ovarian = system: OVCAR-4 ovarian
UACC-62 melanoma = system: UACC-62 melanoma
MCF7 breast = system: MCF7 breast
HOP-62 NSCLC = system: HOP-62 NSCLC
SF-268 CNS = system: SF-268 CNS
SF-539 CNS = system: SF-539 CNS
CCRF-CEM leukemia = system: CCRF-CEM leukemia
OVCAR-3 ovarian = system: OVCAR-3 ovarian

SMILES	GI50 (NCI-H522 lung)	TGI (NCI-H522 lung)	GI50 (UO-31 renal) [µM]	TGI (UO-31 renal)	GI50 (OVCAR-4 ovarian)	TGI (OVCAR-4 ovarian)	GI50 (UACC-62 melanoma)	TGI (UACC-62 melanoma)	GI50 (MCF7 breast)	TGI (MCF7 breast) [µM]	GI50 (HOP-62 NSCLC)	TGI (HOP-62 NSCLC)	GI50 (SF-268 CNS) [µM]	TGI (SF-268 CNS)	GI50 (SF-539 CNS)	TGI (SF-539 CNS)	GI50 (CCRF-CEM leukemia) [µM]	TGI (CCRF-CEM leukemia)	GI50 (OVCAR-3 ovarian) [µM]	TGI (OVCAR-3 ovarian)
O=S(=O)(c1ccc(Cl)cc1)C(Cl)(Cl)Cl	2.95 µM	21 µM	0.298	11.5 µM	2.23 µM	> 63.3 µM	4.75 µM	25 µM	2.72 µM	> 100	8.12 µM	> 49.5 µM	1.56	20.6 µM	3.17 µM	29 µM	1.62	> 32.6 µM	0.886	4.45 µM
Fc1ccc(/C=N/n2c(-c3ccc(F)c(Cl)c3)nn(CNc3ccccc3C(F)(F)F)c2=S)cc1	24.4 µM	76.3 µM	34.8	> 100 µM	57.4 µM	> 100 µM	39.2 µM	> 100 µM	30.7 µM	> 100	> 100 µM	> 100 µM	> 100	> 100 µM	93.2 µM	> 100 µM	51.6	> 100 µM	53.9	> 100 µM
CCCN(CCS(C)(=O)=O)Cc1ccc(-c2ccc3ncnc(Nc4ccc(OCc5cccc(F)c5)c(Cl)c4)c3c2)o1	0.525 µM	> 25 µM	5.12	> 25 µM	21.3 µM	> 25 µM	> 25 µM	> 25 µM	> 20.2 µM	> 25	> 25 µM	> 25 µM	> 25	> 25 µM	> 25 µM	> 25 µM	7.39	> 25 µM	> 22.9	> 25 µM
COc1ccccc1-c1cc(=O)c2cc(C)cnc2[nH]1		> 100 µM		> 100 µM		> 100 µM		> 100 µM		> 100		> 100 µM		> 100 µM		> 100 µM		55.2 µM	19.5	60.2 µM
CN1CCN(C(=O)c2cc(-c3ccc4ncnc(N5CCc6cc(F)c(Cl)cc65)c4c3)cnc2N)CC1	0.346 µM	3.22 µM	0.0996	4.42 µM	0.3 µM	4.22 µM	0.177 µM	0.67 µM	0.0992 µM	1.89	0.244 µM	4.46 µM	0.216	2.32 µM	0.264 µM	1.44 µM	0.266	4.92 µM	0.248	1.49 µM
NC(=O)c1csc(C2OC(CO)C(O)C2O)n1 (centres undefined)	42.7 µM	678 µM	44.6	1740 µM		1160 µM	> 79.7 µM	4960 µM	76.3 µM	7340	44.7 µM	3110 µM	96.1	9040 µM	47.9 µM	3590 µM	15.6		22.2	7030 µM
CC(=O)/C=C/c1cn(C(=O)OC(C)(C)C)c2ccc(Br)cc12	17.7 µM	63.3 µM	10.3	51.9 µM	25.7 µM	> 100 µM	20.6 µM	> 85.7 µM	9.71 µM	46.5	15.8 µM	30.4 µM	24.1	97.9 µM	12.8 µM	26 µM	1.07	> 100 µM	13	28.3 µM
O=S(=O)(Nc1cc(Sc2cccc3cccnc23)c(O)c2ccccc12)c1ccc(F)cc1	1.4 µM	3.9 µM	1.09	4.75 µM	0.504 µM	1.8 µM	1.85 µM	4.39 µM	1.05 µM	3.21	2.05 µM	17 µM	1.89	11.9 µM	2.04 µM	5.99 µM	0.544	11.9 µM	0.869	3.08 µM
CN=c1ccc2nc3ccc(N)cc3sc-2c1	1.33 µM	7.97 µM	4.56	21.2 µM	0.689 µM	7.07 µM	2.61 µM	14 µM	1.63 µM	6.5	6.8 µM	27.3 µM	2.84	17.1 µM	1.75 µM	5.86 µM	0.584	17.9 µM	1.02	13.8 µM
COc1ccc2c(c1)N(CCO)C1=C(C(=O)OC1)C2c1cccc(F)c1 (centres undefined)	0.118 µM	1.08 µM	0.413	> 50 µM	1.83 µM	> 50 µM	0.203 µM	> 50 µM	0.202 µM	> 50		> 50 µM	0.764	> 50 µM	0.332 µM	3.19 µM	0.43	> 50 µM	0.188	
CCc1ccc2c(c1)N(CCO)C1=C(C(=O)OC1)C2c1cccc(Br)c1 (centres undefined)	0.173 µM	2.06 µM	1.05	18.1 µM	0.738 µM	17.3 µM	0.518 µM	16.7 µM	0.244 µM	1.68	0.462 µM	14.5 µM	0.722	15.9 µM	0.458 µM	10.1 µM	0.351	15.6 µM	0.296	1.23 µM
C[C@@H]1CN(Cc2ccc(F)cc2)[C@@H](C)CN1C(=O)c1cc2c(C(=O)C(=O)N(C)C)cn(C)c2cc1Cl	15.8 µM	43.4 µM	15.3	> 81.9 µM	22.1 µM	> 90.3 µM	5.86 µM	23.9 µM	15.2 µM	37.3	18.7 µM	48.9 µM	18.5	46.1 µM	14.9 µM	29.7 µM	18.5	50.2 µM	18.7	39.2 µM
COc1ccc(-c2nc(Nc3cc(C)[nH]n3)c3ccccc3n2)cc1	1.67 µM	19.8 µM	0.529	14.9 µM	2.34 µM	> 72.5 µM	2.37 µM	> 100 µM	1.71 µM	44.6	1.17 µM	> 26.2 µM	2.42	> 59.4 µM	1.47 µM	4.15 µM	5.18	66.2 µM	3.72	38.8 µM
O=C(/C=C/c1ccccc1)CCN1CCOCC1		8.13 µM		26.6 µM		42.5 µM		31.1 µM		24.1		64 µM		38.3 µM		25 µM		12.1 µM		33.3 µM
CO/N=C(\COc1ccc2c(c1)[nH]c1ccccc12)c1ccc(F)cc1	> 100 µM	> 100 µM	> 100	> 100 µM	26.1 µM	> 100 µM	95.9 µM	> 100 µM	> 100 µM	> 100	6.44 µM	26.7 µM	> 100	> 100 µM	> 100 µM	> 100 µM	22.6	53.9 µM	10.6	> 100 µM
O=C1CCC(N2Cc3cc(CNC(=O)C(F)(F)c4ccc(Cl)cc4)ccc3C2=O)C(=O)N1 (centres undefined)	> 66.1 µM	> 100 µM	0.32	> 100 µM	1.48 µM	> 100 µM	> 100 µM	> 100 µM	> 100 µM	> 100	3.02 µM	> 100 µM	> 100	> 100 µM	> 100 µM	> 100 µM	< 0.0156		> 100	> 100 µM
Nc1nc(OCc2ccccc2)c2[nH]cnc2n1	23.6 µM and 16.5 µM	135 µM and 69.4 µM	17.1	82 µM and 82.2 µM	41.2 µM and 43.4 µM	365 µM and 528 µM	25 µM and 17.3 µM	128 µM and 90.7 µM	41.9 µM and 41.8 µM	355	42 µM and 23.5 µM	209 µM and 70.9 µM	53.2	400 µM and 574 µM	30 µM and 31.4 µM	266 µM and 154 µM	39.5	319 µM and 274 µM	33.9	400 µM and 284 µM
O=C(OCc1ccc2ccccc2n1)c1cn(C2CC2)c2cc(N3CCN(Cc4ccc5ccccc5n4)CC3)c(F)cc2c1=O	> 94.3 µM	> 100 µM	> 100	> 100 µM	> 100 µM	> 100 µM	46.1 µM	> 100 µM	35 µM	> 92.7	> 53.8 µM	> 95.2 µM	> 62.5	> 100 µM	21.2 µM	58 µM	> 100	> 100 µM	44.9	> 100 µM
O=C1c2ccccc2-c2cc([N+](=O)[O-])c([N+](=O)[O-])cc21		2.99 µM		3.07 µM		3.31 µM		3.13 µM		2.4		3.13 µM		5.13 µM		1.03 µM		0.958 µM		1.01 µM
CN1C(=O)N(C)C2C1NN=c1s/c(=C\c3ccc(C(F)(F)F)cc3)c(=O)n12 (centres undefined)	0.355 µM	2.25 µM	2.21	> 100 µM	> 100 µM	> 100 µM	0.662 µM	> 100 µM	0.392 µM	> 100	1.31 µM	20.1 µM	10.4	> 100 µM	0.983 µM	6.26 µM	0.955	> 100 µM	0.493	17.7 µM
CN[C@@H](C)C(=O)N[C@H](C(=O)N1CCC[C@H]1C(=O)Nc1sc(-c2ncco2)nc1-c1ccccc1)C1CCCCC1	10.2 µM	28.1 µM	32.1	> 68.9 µM	3.26 µM	> 100 µM	18.6 µM	39.2 µM	21.7 µM	> 100	> 92.2 µM	> 100 µM	99.7	> 100 µM	0.957 µM	17.8 µM	32.5	> 100 µM	38.7	> 100 µM
O=C(/C=C/c1cc2ccccc2[nH]c1=O)/C=C/c1cc2ccccc2[nH]c1=O		> 47 µM	> 100	> 100 µM	19.2 µM	> 100 µM	16.9 µM	97.8 µM	3.84 µM	> 47.7	14.5 µM	> 76.9 µM	18	99.7 µM	9.13 µM	> 75.9 µM	7.97	> 100 µM	12.1	> 63.5 µM
OCc1ccc(N2CCCC2c2ccccc2)cc1Cl (centres undefined)	5.18 µM	18.6 µM	9.28	27.4 µM	1.39 µM	14.2 µM	0.665 µM	4.01 µM	1.42 µM	13.2	3.69 µM	15.8 µM	13.2	49.5 µM	8.77 µM	21.8 µM	6.44	39.7 µM	2.3	10.1 µM
COc1cc2c(cc1C1COc3cc4occc4cc3C1=O)OCO2 (centres undefined)		> 100 µM		> 100 µM		36.5 µM		> 100 µM		> 100		> 100 µM		> 100 µM		> 100 µM		> 100 µM		> 100 µM
OCC1OC(n2cnc3c(N/N=C\c4ccccn4)ncnc32)C(O)C1O (centres undefined)	0.182 µM	> 100 µM	0.235	1.44 µM	0.115 µM		0.866 µM	4.05 µM	0.122 µM	> 100	0.289 µM	2.14 µM	0.167	1 µM	0.318 µM	2.27 µM	0.0338	> 100 µM	0.319	3.04 µM
O=C1OCC2=C1C(c1ccccc1)c1cc3c(cc1N2)OCO3 (centres undefined)	< 0.011 µM	1.56 µM	0.332	> 100 µM	0.0823 µM	> 48.3 µM	0.0328 µM	> 100 µM	0.0316 µM	17.3	0.0462 µM	33.4 µM	0.0654	> 43.4 µM	0.0318 µM	9.3 µM	0.039	> 100 µM	0.0202	0.0486 µM

Source: PubChem BioAssay (NCI)
